In the oligonucleotide strings, read from the 5' end, every base follows the letter of its sugar. An asterisk marks phosphorothioate; unmarked linkages are phosphodiester. Other units and linkages are bracketed, terminal groups are in braces. A string of capitals states the bases alone. d = 2'-deoxy (DNA)

The values below come from patent publication US20080292619A1, “Pharmaceutical Composition Containing Meltrin Antagonist” (MOCHIDA PHARMACEUTICAL CO., LTD., priority 2004, published 2008).

The test system of this data set is human meltrin α RNA. The data set is described as follows: Suppression of human meltrin α expression by antisense compound in RD cell (real time PCR). Format: cell-based. Particulars: RD cell. The procedure: First, RD cell (ATCC) was suspended in DMEM containing 10% fetal bovine serum (FBS, SIGMA), and the suspension was inoculated in 6 well culture plate at 2.5×10^5 cells/well/2 mL. After incubating overnight at 37° C. in the presence of 5% CO2, the cells were washed twice with serum-free DMEM, and Opti-MEM medium (GIBCO) was added at 800 μL/well.
Gene transfection reagent Lipofectin (Invitrogen) was diluted with Opti-MEM to 20 μg/mL, and the dilution was allowed to stand at room temperature for 30 minutes. Next, the antisense oligodeoxynucleotide synthesized as described above was heated at 90° C. for 3 minutes, and after quenching on ice, diluted with Opti-MEM to a concentration 10 times higher than the final concentration. Equal amounts of the Lipofectin in Opti-MEM and the antisense oligo DNA in Opti-MEM were mixed, and the mixture was incubated at room temperature for 15 minutes and added to 6 well plate at 200 μL/well.
The culture was incubated at 37° C. for 4 hours in the presence of 5% CO2, and the culture supernatant containing the Lipofectin was removed. The cells were washed twice with serum-free DMEM, and after adding 1 mL/well of Opti-MEM and incubating for 18 hours at 37° C. in the presence of 5% CO2, the cells were subjected to the measurement of the level of expression of meltrin α RNA.
After the washing, RNA was isolated from the cell by using RNA isolation kit (RNeasy Micro Kit, QIAGEN) according to the protocol of the kit, and RNA concentration was determined by measuring absorbance at a wavelength of 260 nm with a spectrophotometer (Nano prop, LMS Co., Ltd.) (1OD=40 μg/mL). After the quantitation, the RNA was prepared to a concentration of 0.1 μg/μL by using DEPC-treated water.
0.35 μg of the isolated RNA, and 3.5 μL of 10× TaqMan buffer, 7.7 μL of 25 mM MgCl2, 7.0 μL of 2.5 mM each dNTP Mix, 1.75 μL of 50 μM Random Hexamers, 0.7 μL of 20 U/μL RNase inhibitor, and 0.9 μL of 50 U/μL MultiScribe Reverse Transcriptase (all purchased from Applied Biosystems) were mixed, and water was added to make up the total volume to 35 μL. This solution was maintained at 25° C. for 10 minutes, at 48° C. for 30 minutes, and at 95° C. for 5 minutes, and reverse transcription was conducted to synthesize cDNA.
A solution in total volume of 20 μL containing 10 μL of TaqMan Universal PCR Master Mix, 0.4 μL of 10 μM TaqMan MGB Probe (sequence 5′FAM-caccgaaggacaatccca-MGB-3′: Applied Biosystems), 0.1 μL of 50 μM Forward primer (sequence ggaagccgccagattcct) for detecting meltrin α, 0.1 μL of 50 μM Reverse primer (sequence […]) for detecting meltrin α (all purchased from Sigma-Genosys), 5 μL of the cDNA solution of (3), and 4.4 μL of water was prepared, and after maintaining the solution at 50° C. for 2 minutes and at 95° C. for 10 minutes, PCR was conducted by repeating 40 cycles of 95° C. for 15 seconds and 60° C. for 1 minute in ABI Prism 7000.
The amount of the human meltrin α RNA was measured by conducting real time PCR by using the plasmid containing the cDNA coding for the human meltrin α for the template to generate the standard curve, and calculating RNA copy number of the meltrin α in each sample. The level of expression of GAPDH was also determined by using a primer and probe set for real time PCR of human GAPDH (Pre-Developed TaqMan Assay Reagents Human GAPDH (20×) (Cat# 4310884E, Applied Biosystems).
The results of the real time PCR of the meltrin α was corrected by the level of expression of the GAPDH to calculate the suppression rate. […]
(In general: Quantitative PCR measures a nucleic acid by following its amplification.)

With “H021: tcttccttggttccataagc (TCTTCCTTGGTTCCATAAGC; antisense; DNA, all phosphorothioate, methylation of C not given here)”, for the setting “corrected by GAPDH”, the “suppression rate of expression, 200 nM” value is on record as “+ (“+” when the suppression rate was at least 30%)”.

For the substance “H136 + 17: gagggacattcaggccgttg (GAGGGACATTCAGGCCGTTG; antisense; DNA, all phosphorothioate, methylation of C not given here)”, the “suppression rate of expression, 50 nM” value (corrected by GAPDH) was “+ (“+” when the suppression rate was at least 30%)”.

Consider “H133 + 5: ccttcggtgggtaggaatct (CCTTCGGTGGGTAGGAATCT; antisense; DNA, all phosphorothioate, methylation of C not given here)”, for which the “suppression rate of expression, 50 nM” value (corrected by GAPDH) is “+ (“+” when the suppression rate was at least 30%)”.

As to “H139: gcccggtggaggggaggaag (GCCCGGTGGAGGGGAGGAAG; antisense; DNA, all phosphorothioate, methylation of C not given here)”, where the note is “corrected by GAPDH”, the “suppression rate of expression, 50 nM” value is “+ (“+” when the suppression rate was at least 30%)” and the “suppression rate of expression, 200 nM” value is on record as “+++ (“+++” when the suppression rate was at least 70%)”.

Take “H008: gccgccgctgagctcttcta (GCCGCCGCTGAGCTCTTCTA; antisense; DNA, all phosphorothioate, methylation of C not given here)”: under “corrected by GAPDH”, the “suppression rate of expression, 50 nM” value is on record as “++ (“++” when the suppression rate was at least 50%)” and the “suppression rate of expression, 200 nM” value is listed as “++ (“++” when the suppression rate was at least 50%)”.

As to “H012: gccgagcggggccgggcgtc (GCCGAGCGGGGCCGGGCGTC; antisense; DNA, all phosphorothioate, methylation of C not given here)”, where the note is “corrected by GAPDH”, the “suppression rate of expression, 200 nM” value is “+++ (“+++” when the suppression rate was at least 70%)”.

Turning to “H168: caagcaggatatttcaagtt (dC*dA*dA*dG*dC*dA*dG*dG*dA*dT*dA*dT*dT*dT*dC*dA*dA*dG*dT*dT; antisense)”, the “suppression rate of expression, 200 nM” value (corrected by GAPDH) is on record as “+ (“+” when the suppression rate was at least 30%)”.

In the case of “H139 + 15: ctaggtgcacgtggggcccg (CTAGGTGCACGTGGGGCCCG; antisense; DNA, all phosphorothioate, methylation of C not given here)”, the “suppression rate of expression, 50 nM” value (corrected by GAPDH) is “+++ (“+++” when the suppression rate was at least 70%)”.

As for “H058: tcatggaggctggtgaatgg (dT*dC*dA*dT*dG*dG*dA*dG*dG*dC*dT*dG*dG*dT*dG*dA*dA*dT*dG*dG; antisense)”, for the setting “corrected by GAPDH”, the “suppression rate of expression, 200 nM” value was “++ (“++” when the suppression rate was at least 50%)”.

In the case of “H136 + 16: agggacattcaggccgttga (AGGGACATTCAGGCCGTTGA; antisense; DNA, all phosphorothioate, methylation of C not given here)”, the “suppression rate of expression, 50 nM” value (corrected by GAPDH) is “+ (“+” when the suppression rate was at least 30%)”.

As to “H076-OMe2: chimeric antisense oligonucleotide CTTTCtccaggctggTCTCC, uppercase 2′-methoxy nucleotides, lowercase phosphorothioate nucleotides (CTTTCTCCAGGCTGGTCTCC; 2'-O-methyl at 1, 2, 3, 4, 5, 16, 17, 18, 19, 20, other sugars, backbone and T or U not given here; lowercase gap nucleotides phosphorothioate)”, for the setting “chimeric 2′-methoxy antisense oligonucleotides”, the “suppression rate of expression, 200 nM” value is given as “+++ (“+++” when the suppression rate was at least 70%)”.

Regarding “H133 + 3: ttcggtgggtaggaatctgg (TTCGGTGGGTAGGAATCTGG; antisense; DNA, all phosphorothioate, methylation of C not given here)”, the “suppression rate of expression, 50 nM” value (corrected by GAPDH) was “+ (“+” when the suppression rate was at least 30%)”.

In the case of “H184: ggctacaccttaagattcct (dG*dG*dC*dT*dA*dC*dA*dC*dC*dT*dT*dA*dA*dG*dA*dT*dT*dC*dC*dT; antisense)”, for the setting “corrected by GAPDH”, the “suppression rate of expression, 200 nM” value was “+ (“+” when the suppression rate was at least 30%)”.

Turning to “H071: ccatttgacagctacagccc (dC*dC*dA*dT*dT*dT*dG*dA*dC*dA*dG*dC*dT*dA*dC*dA*dG*dC*dC*dC; antisense)”, where the note is “corrected by GAPDH”, the “suppression rate of expression, 200 nM” value is recorded as “+ (“+” when the suppression rate was at least 30%)”.

As to “H027: ttctttgctttcccgttgta (TTCTTTGCTTTCCCGTTGTA; antisense; DNA, all phosphorothioate, methylation of C not given here)”, the “suppression rate of expression, 200 nM” value (corrected by GAPDH) was “+ (“+” when the suppression rate was at least 30%)”.

For “H018: cagggcgagcaggagggcgc (CAGGGCGAGCAGGAGGGCGC; antisense; DNA, all phosphorothioate, methylation of C not given here)”, under “corrected by GAPDH”, the “suppression rate of expression, 50 nM” value is “+ (“+” when the suppression rate was at least 30%)” and the “suppression rate of expression, 200 nM” value is “++ (“++” when the suppression rate was at least 50%)”.

Turning to “H144 + 15: cagaggatctgcaggcagag (CAGAGGATCTGCAGGCAGAG; antisense; DNA, all phosphorothioate, methylation of C not given here)”, under “corrected by GAPDH”, the “suppression rate of expression, 50 nM” value is “+ (“+” when the suppression rate was at least 30%)”.

In the case of “H140: ggacgctaggtgcacgtggg (GGACGCTAGGTGCACGTGGG; antisense; DNA, all phosphorothioate, methylation of C not given here)”, under “corrected by GAPDH”, the “suppression rate of expression, 50 nM” value was “+ (“+” when the suppression rate was at least 30%)” and the “suppression rate of expression, 200 nM” value was “+++ (“+++” when the suppression rate was at least 70%)”.

Consider “H144 + 13: gaggatctgcaggcagaggc (GAGGATCTGCAGGCAGAGGC; antisense; DNA, all phosphorothioate, methylation of C not given here)”, for which the “suppression rate of expression, 50 nM” value (corrected by GAPDH) is reported as “++ (“++” when the suppression rate was at least 50%)”.

On to “H187: ggctggtcagctcagggtca (dG*dG*dC*dT*dG*dG*dT*dC*dA*dG*dC*dT*dC*dA*dG*dG*dG*dT*dC*dA; antisense)”, for which the “suppression rate of expression, 200 nM” value (corrected by GAPDH) is recorded as “+++ (“+++” when the suppression rate was at least 70%)”.

For “H075: cttcctgctgcaactgctga (dC*dT*dT*dC*dC*dT*dG*dC*dT*dG*dC*dA*dA*dC*dT*dG*dC*dT*dG*dA)”, the “suppression rate of expression, 200 nM” value (corrected by GAPDH) is “+ (“+” when the suppression rate was at least 30%)”.

In the case of “H145: ctggccagaggatctgcagg (CTGGCCAGAGGATCTGCAGG; antisense; DNA, all phosphorothioate, methylation of C not given here)”, for the setting “corrected by GAPDH”, the “suppression rate of expression, 50 nM” value is given as “+++ (“+++” when the suppression rate was at least 70%)” and the “suppression rate of expression, 200 nM” value is given as “+++ (“+++” when the suppression rate was at least 70%)”.

In the case of “H048: cagctccacatacttagttg (CAGCTCCACATACTTAGTTG; antisense; DNA, all phosphorothioate, methylation of C not given here)”, for the setting “corrected by GAPDH”, the “suppression rate of expression, 200 nM” value is given as “++ (“++” when the suppression rate was at least 50%)”.

For “H136: ttgaggggtctgctgatgtc (TTGAGGGGTCTGCTGATGTC; antisense; DNA, all phosphorothioate, methylation of C not given here)”, where the note is “corrected by GAPDH”, the “suppression rate of expression, 50 nM” value is “+ (“+” when the suppression rate was at least 30%)” and the “suppression rate of expression, 200 nM” value is recorded as “+++ (“+++” when the suppression rate was at least 70%)”.

On to “H141 + 15: cctaagtgcaggcttggctg (CCTAAGTGCAGGCTTGGCTG; antisense; DNA, all phosphorothioate, methylation of C not given here)”, for which, under “corrected by GAPDH”, the “suppression rate of expression, 50 nM” value is “+ (“+” when the suppression rate was at least 30%)”.
